Source: patent publication US20140274688A1, “MOLECULES HAVING CERTAIN PESTICIDAL UTILITIES, AND INTERMEDIATES, COMPOSITIONS, AND PROCESSES RELATED THERETO” (DOW AGROSCIENCES LLC, priority 2013, published 2014)

Assays:
[1] = test system: Cabbage Looper (Trichoplusia ni) ("CL"); assay: Bioassay on Cabbage Looper (CL), 128-well diet tray assay, percent mortality; format: in vivo; settings: for CL rating (percent mortality class): Cabbage Looper, 128-well diet tray assay; for pest or weed control at 50 µg/cm2: Trichoplusia ni, read-out: CL
Description: (§1) Bioassays on Beet Armyworm (Spodoptera exigua) (“BAW”) and Cabbage Looper (Trichoplusia ni) (“CL”)
(§2) BAW has few effective parasites, diseases, or predators to lower its population. BAW infests many weeds, trees, grasses, legumes, and field crops. In various places, it is of economic concern upon asparagus, cotton, corn, soybeans, tobacco, alfalfa, sugar beets, peppers, tomatoes, potatoes, onions, peas, sunflowers, and citrus, among other plants. The Cabbage Looper is a member of the moth family Noctuidae. It is found throughout the world. It is attacks cabbage, cauliflower, broccoli, Brussel sprouts, tomatoes, cucumbers, potatoes, kale, turnips, mustard, peppers, eggplant, watermelons, melons, squash, cantaloupe, peas, beans, collards, lettuce, spinach, celery, parsley, beets, peas, alfalfa, soybeans, and cotton. This species is very destructive to plants due to its voracious consumption of leaves. In the case of cabbage, however, they feed not only on the wrapper leaves, but also may bore into the developing head. The larvae consume three times their weight in plant material daily. The feeding sites are marked by large accumulations of sticky, wet fecal material.
(§3) Consequently, because of the above factors control of these pests is important.
(§4) Certain molecules disclosed in this document were tested against BAW and CEW using procedures described in the following examples. In the reporting of the results, the “BAW & CL Rating Table” was used (See Table Section).
Bioassays on Cabbage Looper in CL
(§5) Trays were covered with a clear self-adhesive cover and held at 25° C., 14:10 light-dark for five to seven days. Percent mortality was recorded for the larvae in each well; activity in the eight wells was then averaged. The results are indicated in the table entitled “Table ABC: Biological Results” (See Table Section).

[2] = test system: Beet Armyworm (Spodoptera exigua) ("BAW"); assay: Bioassay on Beet Armyworm (BAW), 128-well diet tray assay, percent mortality; format: in vivo; settings: for BAW rating (percent mortality class): Beet Armyworm, 128-well diet tray assay; for pest or weed control at 50 µg/cm2: Spodoptera exigua, read-out: BAW
Description: as §1, §2, §3, §4, §5

CCc1ccc(C)cc1NC(=S)NC(=O)NC1CC1c1ccc(-c2ncn(-c3ccc(OC(F)(F)F)cc3)n2)cc1 (centres unmarked) [F27, N-(2-ethyl-5-methylphenyl)-N′-[2-(4-{1-[4-(trifluoromethoxy)phenyl]-1H-1,2,4-triazol-3-yl}phenyl)cyclopropyl]dicarbonimidothioic diamide]
CL rating (percent mortality class) [1]: A (50-100) | BAW rating (percent mortality class) [2]: A (50-100)

Cc1ccc(C(C)C)c(NC(=S)NC(=O)NC2CC2c2ccc(-c3ncn(-c4ccc(OC(F)(F)F)cc4)n3)cc2)c1 (centres unmarked) [F28, N-[5-methyl-2-(propan-2-yl)phenyl]-N′-[2-(4-{1-[4-(trifluoromethoxy)phenyl]-1H-1,2,4-triazol-3-yl}phenyl)cyclopropyl]dicarbonimidothioic diamide]
CL rating (percent mortality class) [1]: A (50-100) | BAW rating (percent mortality class) [2]: A (50-100)

CCCc1ccccc1N1C(=O)CS/C1=N\C(=O)NC1CC1c1ccc(-c2ncn(-c3ccc(OC(F)(F)F)cc3)n2)cc1 (centres unmarked) [F30, (Z)-1-(4-oxo-3-(2-propylphenyl)thiazolidin-2-ylidene)-3-(2-(4-(1-(4-(trifluoromethoxy)phenyl)-1H-1,2,4-triazol-3-yl)phenyl)cyclopropyl)urea]
CL rating (percent mortality class) [1]: A (50-100) | BAW rating (percent mortality class) [2]: A (50-100)

CCc1cccc(C)c1N1C(=O)CS/C1=N\C(=O)NC1CC1c1ccc(-c2ncn(-c3ccc(OC(F)(F)F)cc3)n2)cc1 (centres unmarked) [F31, (Z)-1-(3-(2-ethyl-6-methylphenyl)-4-oxothiazolidin-2-ylidene)-3-(2-(4-(1-(4-(trifluoromethoxy)phenyl)-1H-1,2,4-triazol-3-yl)phenyl)cyclopropyl)urea]
CL rating (percent mortality class) [1]: A (50-100) | BAW rating (percent mortality class) [2]: A (50-100)

Cc1cccc(C)c1N1C(=O)CS/C1=N\C(=O)NC1CC1c1ccc(-c2ncn(-c3ccc(OC(F)(F)F)cc3)n2)cc1 (centres unmarked) [F32, (Z)-1-(3-(2,6-dimethylphenyl)-4-oxothiazolidin-2-ylidene)-3-(2-(4-(1-(4-(trifluoromethoxy)phenyl)-1H-1,2,4-triazol-3-yl)phenyl)cyclopropyl)urea]
CL rating (percent mortality class) [1]: A (50-100) | BAW rating (percent mortality class) [2]: A (50-100)

CCc1ccc(C)cc1N1C(=O)CS/C1=N\C(=O)NC1CC1c1ccc(-c2ncn(-c3ccc(OC(F)(F)F)cc3)n2)cc1 (centres unmarked) [F33, (Z)-1-(3-(2-ethyl-5-methylphenyl)-4-oxothiazolidin-2-ylidene)-3-(2-(4-(1-(4-(trifluoromethoxy)phenyl)-1H-1,2,4-triazol-3-yl)phenyl)cyclopropyl)urea]
CL rating (percent mortality class) [1]: A (50-100) | BAW rating (percent mortality class) [2]: A (50-100)

Cc1ccc(C(C)C)c(N2CCS/C2=N\C(=O)NC2CC2c2ccc(-c3ncn(-c4ccc(OC(F)(F)F)cc4)n3)cc2)c1 (centres unmarked) [F34, (Z)-1-(3-(2-isopropyl-5-methylphenyl)thiazolidin-2-ylidene)-3-(2-(4-(1-(4-(trifluoromethoxy)-phenyl)-1H-1,2,4-triazol-3-yl)phenyl)cyclopropyl)urea]
CL rating (percent mortality class) [1]: A (50-100) | BAW rating (percent mortality class) [2]: A (50-100)

Cc1ccccc1N1C(=O)CS/C1=N\C(=O)NCc1ccc(-c2ncn(-c3ccc(OC(F)(F)F)cc3)n2)cc1 [P1, (Z)-1-(4-oxo-3-(o-tolyl)thiazolidin-2-ylidene)-3-(4-(1-(4-(trifluoromethoxy)phenyl)-1H-1,2,4-triazol-3-yl)benzyl)urea]
pest or weed control at 50 µg/cm2 [1]: 50 to 100% | pest or weed control at 50 µg/cm2 [2]: 50 to 100%

CCc1ccccc1N1C(=O)CS/C1=N\C(=O)NCc1ccc(-c2ncn(-c3ccc(OC(F)(F)F)cc3)n2)cc1 [P2, (Z)-1-(3-(2-ethylphenyl)-4-oxothiazolidin-2-ylidene)-3-(4-(1-(4-(trifluoromethoxy)phenyl)-1H-1,2,4-triazol-3-yl)benzyl)urea]
pest or weed control at 50 µg/cm2 [1]: 50 to 100% | pest or weed control at 50 µg/cm2 [2]: 50 to 100%

CC(C)c1cc(F)ccc1N1C(=O)CS/C1=N\C(=O)NCc1ccc(-c2ncn(-c3ccc(OC(F)(F)F)cc3)n2)cc1 [P3, (Z)-1-(3-(4-fluoro-2-isopropylphenyl)-4-oxothiazolidin-2-ylidene)-3-(4-(1-(4-(trifluoromethoxy)phenyl)-1H-1,2,4-triazol-3-yl)benzyl)urea]
pest or weed control at 50 µg/cm2 [1]: 50 to 100% | pest or weed control at 50 µg/cm2 [2]: 50 to 100%

Cc1ccc(N2C(=O)CS/C2=N\C(=O)NCc2ccc(-c3ncn(-c4ccc(OC(F)(F)F)cc4)n3)cc2)c(C(C)C)c1 [P5, (Z)-1-(3-(2-isopropyl-4-methylphenyl)-4-oxothiazolidin-2-ylidene)-3-(4-(1-(4-(trifluoromethoxy)phenyl)-1H-1,2,4-triazol-3-yl)benzyl)urea]
pest or weed control at 50 µg/cm2 [1]: 50 to 100% | pest or weed control at 50 µg/cm2 [2]: 50 to 100%

COc1ccc(N2C(=O)CS/C2=N\C(=O)NCc2ccc(-c3ncn(-c4ccc(OC(F)(F)F)cc4)n3)cc2)c(C)c1 [P6, (Z)-1-(3-(4-methoxy-2-methylphenyl)-4-oxothiazolidin-2-ylidene)-3-(4-(1-(4-(trifluoromethoxy)phenyl)-1H-1,2,4-triazol-3-yl)benzyl)urea]
pest or weed control at 50 µg/cm2 [1]: 50 to 100% | pest or weed control at 50 µg/cm2 [2]: 50 to 100%

CCc1ccc(C)cc1N1C(=O)CS/C1=N\C(=O)NCc1ccc(-c2ncn(-c3ccc(OC(F)(F)F)cc3)n2)cc1 [P7, (Z)-1-(3-(2-ethyl-5-methylphenyl)-4-oxothiazolidin-2-ylidene)-3-(4-(1-(4-(trifluoromethoxy)phenyl)-1H-1,2,4-triazol-3-yl)benzyl)urea]
pest or weed control at 50 µg/cm2 [1]: 50 to 100% | pest or weed control at 50 µg/cm2 [2]: 50 to 100%

CCCc1ccc(C)cc1N1C(=O)CS/C1=N\C(=O)NCc1ccc(-c2ncn(-c3ccc(OC(F)(F)F)cc3)n2)cc1 [P8, (Z)-1-(3-(5-methyl-2-propylphenyl)-4-oxothiazolidin-2-ylidene)-3-(4-(1-(4-(trifluoromethoxy)phenyl)-1H-1,2,4-triazol-3-yl)benzyl)urea]
pest or weed control at 50 µg/cm2 [1]: 50 to 100% | pest or weed control at 50 µg/cm2 [2]: 50 to 100%

CC(C)c1ccccc1N1C(=O)CS/C1=N\C(=O)NCc1ccc(-c2ncn(-c3ccc(C(F)(F)F)cc3)n2)cc1 [P14, (Z)-1-(3-(2-isopropylphenyl)-4-oxothiazolidin-2-ylidene)-3-(4-(1-(4-(trifluoromethyl)phenyl)-1H-1,2,4-triazol-3-yl)benzyl)urea]
pest or weed control at 50 µg/cm2 [1]: 50 to 100% | pest or weed control at 50 µg/cm2 [2]: 50 to 100%

Cc1ccc(N2C(=O)CS/C2=N\C(=O)NCc2ccc(-c3ncn(-c4ccc(C(F)(F)F)cc4)n3)cc2)c(C(C)C)c1 [P15, (Z)-1-(3-(2-isopropyl-4-methylphenyl)-4-oxothiazolidin-2-ylidene)-3-(4-(1-(4-(trifluoromethyl)phenyl)-1H-1,2,4-triazol-3-yl)benzyl)urea]
pest or weed control at 50 µg/cm2 [1]: 50 to 100% | pest or weed control at 50 µg/cm2 [2]: 50 to 100%

Cc1ccc(C(C)C)c(N2/C(=N/C(=O)NCCc3ccc(-c4ncn(-c5ccc(OC(F)(F)F)cc5)n4)cc3)SCC2C)c1 (centres unmarked) [P58, (Z)-1-(3-(2-isopropyl-5-methylphenyl)-4-methylthiazolidin-2-ylidene)-3-(4-(1-(4-(trifluoromethoxy)phenyl)-1H-1,2,4-triazol-3-yl)phenethyl)urea]
pest or weed control at 50 µg/cm2 [1]: 50 to 100% | pest or weed control at 50 µg/cm2 [2]: 50 to 100%

Cc1ccc(C(C)C)c(N2CCCS/C2=N\C(=O)NCCc2ccc(-c3ncn(-c4ccc(OC(F)(F)F)cc4)n3)cc2)c1 [P59, (Z)-1-(3-(2-isopropyl-5-methylphenyl)-1,3-thiazinan-2-ylidene)-3-(4-(1-(4-(trifluoromethoxy)phenyl)-1H-1,2,4-triazol-3-yl)phenethyl)urea]
pest or weed control at 50 µg/cm2 [1]: 50 to 100% | pest or weed control at 50 µg/cm2 [2]: 50 to 100%

Cc1ccc(C(C)C)c(N2CC(C)CS/C2=N\C(=O)NCCc2ccc(-c3ncn(-c4ccc(OC(F)(F)F)cc4)n3)cc2)c1 (centres unmarked) [P64, (Z)-1-(3-(2-isopropyl-5-methylphenyl)-5-methyl-1,3-thiazinan-2-ylidene)-3-(4-(1-(4-(trifluoromethoxy)phenyl)-1H-1,2,4-triazol-3-yl)phenethyl)urea]
pest or weed control at 50 µg/cm2 [1]: 50 to 100% | pest or weed control at 50 µg/cm2 [2]: 50 to 100%

Cc1ccc(C(C)C)c(N2C(=O)CS/C2=N\C(=O)NC(C)C(C)c2ccc(-c3ncn(-c4ccc(OC(F)(F)F)cc4)n3)cc2)c1 (centres unmarked) [P66, (Z)-1-(3-(2-isopropyl-5-methylphenyl)-4-oxothiazolidin-2-ylidene)-3-(3-(4-(1-(4-(trifluoromethoxy)phenyl)-1H-1,2,4-triazol-3-yl)phenyl)butan-2-yl)urea]
pest or weed control at 50 µg/cm2 [1]: 50 to 100% | pest or weed control at 50 µg/cm2 [2]: 50 to 100%

Cc1ccccc1N1C(=O)CS/C1=N\C(=O)NCCc1cccc(-c2ncn(-c3ccc(OC(F)(F)F)cc3)n2)c1 [P74, (Z)-1-(4-oxo-3-(o-tolyl)thiazolidin-2-ylidene)-3-(3-(1-(4-(trifluoromethoxy)phenyl)-1H-1,2,4-triazol-3-yl)phenethyl)urea]
pest or weed control at 50 µg/cm2 [1]: 50 to 100% | pest or weed control at 50 µg/cm2 [2]: 50 to 100%

CCc1ccccc1N1C(=O)CS/C1=N\C(=O)NCCc1cccc(-c2ncn(-c3ccc(OC(F)(F)F)cc3)n2)c1 [P75, (Z)-1-(3-(2-ethylphenyl)-4-oxothiazolidin-2-ylidene)-3-(3-(1-(4-(trifluoromethoxy)phenyl)-1H-1,2,4-triazol-3-yl)phenethyl)urea]
pest or weed control at 50 µg/cm2 [1]: 50 to 100% | pest or weed control at 50 µg/cm2 [2]: 50 to 100%
